Patent US10174156B2, “Hyperbranched polyester with a hydrophobic nucleus for solubilizing poorly soluble active substances” (BASF SE, priority 2009, dated 2019)

Experiment: physchem
Conditions: pH 7, aqueous buffer, thermodynamic from solid
Experimental: 2 g of polymer were weighed into a 50 ml beaker. Subsequently, 0.2 g of active ingredient in each case was weighed into the mixture in order to obtain an oversaturated solution. […] The mixture was then stirred at room temperature with the aid of a magnetic stirrer for 72 h. After a rest time of 1 h, excess (i.e. unsolubilized) active ingredient was removed by filtration. The clear or opaque solution thus obtained was subsequently analyzed for its active ingredient content by means of UV spectroscopy or HPLC.

- solubility at 72 h: < 100 µg/mL
SMILES: Clc1ccccc1C(c1ccccc1)(c1ccccc1)n1ccnc1 [Clotrimazole]
